# Patent US4594338A, “Thioether derivatives of tylosin” (priority 1984, dated 1986)
# Legend:
# Format in all cases: cell-based
# [1] = system: Staphylococcus aureus KB 224 (MC, TC, KM, SM^r); test: Minimum inhibitory concentration against resistant strain Staphylococcus aureus KB 224
# Excerpt: (§1) The compounds of formula (I) show antibacterial activity against both gram-positive and gram-negative bacteria. The following Tables illustrate minimum inhibitory concentrations (MIC's) for a representative sample of the compounds of the invention against gram-positive and gram-negative bacteria as well as bacteria resistant to antibiotics. In the Tables abbreviations with the symbol r attached designate resistant bacterial strains.
# Escherichia coli NIHJ = test: Minimum inhibitory concentration, Escherichia coli NIHJ
# Excerpt: as §1
# [2] = system: Staphylococcus aureus KB 221 (MC, TC, CP, KM^r); test: Minimum inhibitory concentration against resistant strain Staphylococcus aureus KB 221
# Excerpt: as §1
# [3] = system: Pseudomonas aeruginosa P-3; test: Minimum inhibitory concentration, Pseudomonas aeruginosa P-3; settings: P3
# Excerpt: as §1
# Bacillus cereus IFO 3001 = test: Minimum inhibitory concentration, Bacillus cereus IFO 3001; settings: IFO3001
# Excerpt: as §1
# [4] = system: Mycobacterium smegmatis ATCC 607; test: Minimum inhibitory concentration, Mycobacterium smegmatis ATCC 607; settings: Mycolicibacterium smegmatis, ATCC607
# Excerpt: as §1
# [5] = system: Staphylococcus aureus ATCC 6538P; test: Minimum inhibitory concentration, Staphylococcus aureus ATCC 6538P; settings: ATCC6538P
# Excerpt: as §1
# [6] = system: Staphylococcus aureus KB 191 (MC, TC^r); test: Minimum inhibitory concentration against resistant strain Staphylococcus aureus KB 191
# Excerpt: as §1
# [7] = system: Staphylococcus aureus KB 199(EM^r); test: Minimum inhibitory concentration, Staphylococcus aureus KB 199(EM^r); settings: Staphylococcus aureus KB 199, erythromycin-resistant (EM^r)
# Excerpt: as §1
# [8] = system: Proteus vulgaris IFO 3167; test: Minimum inhibitory concentration, Proteus vulgaris IFO 3167; settings: IFO3167
# Excerpt: as §1
# [9] = system: Micrococcus luteus ATCC 9341; test: Minimum inhibitory concentration, Micrococcus luteus ATCC 9341; settings: ATCC9341
# Excerpt: as §1
# [10] = system: Salmonella typhirium KB 20; test: Minimum inhibitory concentration, Salmonella typhirium KB 20; settings: KB20, read-out: minimum inhibitory concentration (MIC)
# Excerpt: as §1
# [11] = system: Klebsiella pneumoniae PCI 602; test: Minimum inhibitory concentration, Klebsiella pneumoniae PCI 602; settings: PCI602
# Excerpt: as §1
# [12] = system: Klebsiella pneumoniae ATCC 10031; test: Minimum inhibitory concentration, Klebsiella pneumoniae ATCC 10031; settings: ATCC10031
# Excerpt: as §1
# [13] = system: Staphylococcus aureus KB 219 (MC, TC, PC, CP^r); test: Minimum inhibitory concentration against resistant strain Staphylococcus aureus KB 219
# Excerpt: as §1
# [14] = system: Bacillus subtilis PCI 219; test: Minimum inhibitory concentration, Bacillus subtilis PCI 219; settings: PCI219
# Excerpt: as §1
compound,measurement,setting,value
"CCC1OC(=O)CC(O)C(C)C(OC2OC(C)C(OC3CC(C)(O)C(O)C(C)O3)C(N(C)C)C2O)C(CC=O)CC(C)C(=O)CC(Sc2ccccc2)C(C)=CC1COC1OC(C)C(O)C(OC)C1OC (stereo not shown) [Compound S, 10,11-Dihydro-11-(phenylthio)tylosin]",MIC,[1],50 µg/mL
same,MIC,Escherichia coli NIHJ,100 µg/mL
same,MIC,[2],50 µg/mL
same,MIC,[3],> 100 µg/mL
same,MIC,Bacillus cereus IFO 3001,0.4 µg/mL
same,MIC,[4],50 µg/mL
same,MIC,[5],1.56 µg/mL
same,MIC,[6],50 µg/mL
same,MIC,[7],50 µg/mL
same,MIC,[8],100 µg/mL
same,MIC,[9],< 0.1 µg/mL
same,MIC,[10],100 µg/mL
same,MIC,[11],100 µg/mL
same,MIC,[12],100 µg/mL
same,MIC,[13],100 µg/mL
same,MIC,[14],0.4 µg/mL
"CCC1OC(=O)CC(O)C(C)C(OC2OC(C)C(OC3CC(C)(O)C(O)C(C)O3)C(N(C)C)C2O)C(CC=O)CC(C)C(=O)CC(Sc2ccc(Cl)cc2)C(C)=CC1COC1OC(C)C(O)C(OC)C1OC (stereo not shown) [Compound T, 11-(p-Chlorophenylthio)-10,11-dihydrotylosin]",MIC,[1],25 µg/mL
same,MIC,Escherichia coli NIHJ,100 µg/mL
same,MIC,[3],> 100 µg/mL
same,MIC,Bacillus cereus IFO 3001,0.4 µg/mL
same,MIC,[4],50 µg/mL
same,MIC,[5],3.12 µg/mL
same,MIC,[6],25 µg/mL
same,MIC,[7],25 µg/mL
same,MIC,[8],50 µg/mL
same,MIC,[9],< 0.1 µg/mL
same,MIC,[10],100 µg/mL
same,MIC,[11],100 µg/mL
same,MIC,[12],100 µg/mL
same,MIC,[13],50 µg/mL
same,MIC,[14],0.4 µg/mL
"CCC1OC(=O)CC(O)C(C)C(OC2OC(C)C(OC3CC(C)(O)C(O)C(C)O3)C(N(C)C)C2O)C(CC=O)CC(C)C(=O)CC(Sc2ccc(N)cc2)C(C)=CC1COC1OC(C)C(O)C(OC)C1OC (stereo not shown) [Compound U, 11-(p-Aminophenylthio)-10,11-dihydrotylosin]",MIC,[1],25 µg/mL
same,MIC,Escherichia coli NIHJ,> 100 µg/mL
same,MIC,[3],> 100 µg/mL
same,MIC,Bacillus cereus IFO 3001,1.56 µg/mL
same,MIC,[4],> 100 µg/mL
same,MIC,[5],6.25 µg/mL
same,MIC,[6],25 µg/mL
same,MIC,[7],> 100 µg/mL
same,MIC,[8],> 100 µg/mL
same,MIC,[9],0.78 µg/mL
same,MIC,[10],> 100 µg/mL
same,MIC,[11],> 100 µg/mL
same,MIC,[12],> 100 µg/mL
same,MIC,[13],50 µg/mL
same,MIC,[14],0.4 µg/mL
"CCC1OC(=O)CC(O)C(C)C(OC2OC(C)C(OC3CC(C)(O)C(O)C(C)O3)C(N(C)C)C2O)C(CC=O)CC(C)C(=O)CC(Sc2ccc(C)cc2)C(C)=CC1COC1OC(C)C(O)C(OC)C1OC (stereo not shown) [Compound V, 10,11-Dihydro-11-(p-methylphenylthio)tylosin]",MIC,Escherichia coli NIHJ,100 µg/mL
same,MIC,[3],> 100 µg/mL
same,MIC,Bacillus cereus IFO 3001,0.4 µg/mL
same,MIC,[4],50 µg/mL
same,MIC,[5],3.12 µg/mL
same,MIC,[7],25 µg/mL
same,MIC,[8],50 µg/mL
same,MIC,[9],< 0.1 µg/mL
same,MIC,[10],100 µg/mL
same,MIC,[11],100 µg/mL
same,MIC,[12],100 µg/mL
same,MIC,[14],0.4 µg/mL
"CCC1OC(=O)CC(O)C(C)C(OC2OC(C)C(OC3CC(C)(O)C(O)C(C)O3)C(N(C)C)C2O)C(CC=O)CC(C)C(=O)CC(Sc2ccc(OC)cc2)C(C)=CC1COC1OC(C)C(O)C(OC)C1OC (stereo not shown) [Compound W, 10,11-Dihydro-11-(p-methoxyphenylthio)tylosin]",MIC,[1],50 µg/mL
same,MIC,Escherichia coli NIHJ,100 µg/mL
same,MIC,[3],> 100 µg/mL
same,MIC,Bacillus cereus IFO 3001,0.4 µg/mL
same,MIC,[4],> 100 µg/mL
same,MIC,[5],3.12 µg/mL
same,MIC,[6],50 µg/mL
same,MIC,[7],50 µg/mL
same,MIC,[8],50 µg/mL
same,MIC,[9],< 0.1 µg/mL
same,MIC,[10],100 µg/mL
same,MIC,[11],100 µg/mL
same,MIC,[12],100 µg/mL
same,MIC,[13],100 µg/mL
same,MIC,[14],0.4 µg/mL
"CCC1OC(=O)CC(O)C(C)C(OC2OC(C)C(O)C(N(C)C)C2O)C(CC=O)CC(C)C(=O)CC(SCCO)C(C)=CC1COC1OC(C)C(O)C(OC)C1OC (stereo not shown) [O, 10,11-Dihydro-11-(2-hydroxyethylthio)demycarosyltylosin]",MIC,Escherichia coli NIHJ,> 100 µg/mL
same,MIC,[3],> 100 µg/mL
same,MIC,Bacillus cereus IFO 3001,3.12 µg/mL
same,MIC,[4],> 100 µg/mL
same,MIC,[5],12.5 µg/mL
same,MIC,[7],> 100 µg/mL
same,MIC,[8],> 100 µg/mL
same,MIC,[9],0.4 µg/mL
same,MIC,[10],> 100 µg/mL
same,MIC,[11],> 100 µg/mL
same,MIC,[12],> 100 µg/mL
same,MIC,[14],12.5 µg/mL
